Entries after “also recorded” stand apart in the source; their conditions may differ.
Legend:
Type in all cases: cell-based, mouse
[1] = test system: tumor cells expressing specific antigen; assay: Killing of tumor cells expressing specific antigen by chronically stimulated T-cells (co-culture)
Procedure: (§1) FIG. 14A-D. N-acetylcysteine reverses endogenous T-cell exhaustion. Isolated CD3+ T cells were stimulated acutely or chronically as described elsewhere herein in the without anti-PD-L1 (FIG. 14A) or in presence or absence of anti-PD-L1 (FIG. 14B) and/or N-acetylcysteine (10 mM) (FIG. 14C). Following 8 days of culture, cells were re-stimulated for cytokine production (above) or co-cultured with tumor cells expressing specific antigen.
Ultimately, the hallmark of T-cell exhaustion in the context of both chronic viral infections and cancer requires a loss of effector function, defined as the absence of target cell killing. Therefore, it was imperative to establish that exhausted cells generated using this in vitro system were not able to kill target cells. […] 24 hours later luminescence was measured using a luminometer. Killing efficacy was determined by luminescence relative to B16 cells co-cultured with T-cells in the absence of specific peptide.
The in vitro system that developed and described herein allowed for metabolic evaluations that led directly to the identification of oxidative stress as a hallmark of T-cell exhaustion. We therefore evaluated whether adding N-acetylcysteine (10 mM) to T-cell media every 48 hours during days 2-8 of chronic stimulation would be sufficient to reverse the effects of chronic stimulation on T-cell growth and effector function. […]

[2] = test system: chronically stimulated T-cells; assay: Proliferation of chronically stimulated T-cells (polyclonal in vitro exhaustion model, Coulter counter counts); details: CD3+ T cells, chronic anti-CD3/anti-CD28 stimulation days 2-8, 10 mM N-acetylcysteine
Procedure: FIG. 13A-B. N-acetylcysteine restores proliferation of chronically stimulated T-cells. FIG. 13A—schematic representation of model/method. Isolated CD3+ T cells were stimulated for 2 days with plate-bound anti-CD3 and anti-CD28. Following 2-day stimulation, cells were either incubated in IL-2 alone or serially re-plated on plates coated with anti-CD3 and anti-CD28 every 2 days for an additional 6 days in the presence or absence of 10 mM N-acetylcysteine. Cells were counted every 2 days using a Coulter counter. […] FIG. 3A and FIG. 3F provide schematic representations of a polyclonal T cell exhaustion model in which a generalized TCR and CD28 stimulus is used. Utilizing a generalized TCR and CD28 stimulus has multiple advantages. […] We therefore evaluated whether adding N-acetylcysteine (10 mM) to T-cell media every 48 hours during days 2-8 of chronic stimulation would be sufficient to reverse the effects of chronic stimulation on T-cell growth and effector function. […] To determine this, T-cells that had been acutely or chronically stimulated in the presence or absence of 10 mM N-acetylcysteine were assessed for Tcf7 expression via real-time quantitative PCR. […]

[3] = test system: chronically stimulated T-cells; assay: Intracellular ophthalmate levels in chronically stimulated T-cells (LC-MS); details: chronically stimulated CD3+ T cells, 8 days, 10 mM N-acetylcysteine
Procedure: FIG. 18A-C. Ophthalmate is a biomarker for oxidative stress in exhausted T-cells and is reversed by N-acetylcysteine. Isolated CD3+ T cells were stimulated acutely or chronically as described herein in the presence or absence of N-acetylcysteine (10 mM). After 8 days, cells were analyzed for intracellular ophthalmate levels by LC-MS. […] Ophthalmate levels were higher in chronically stimulated T-cells (FIG. 18B) and this was reversed by administration of N-acetylcysteine (FIG. 18C).

Tcf7 = Tcf7 expression in chronically stimulated T-cells (real-time quantitative PCR); details: chronically stimulated CD3+ T cells, 8 days, 10 mM N-acetylcysteine
Description: FIG. 16A-B. N-acetylcysteine restores T-cell memory. Isolated CD3+ T cells were stimulated acutely or chronically as described herein. […] Tumor-infiltrating T-cells from patients with melanoma who received checkpoint inhibitors were extracted and analyzed by single-cell RNA-seq. […] The in vitro system that developed and described herein allowed for metabolic evaluations that led directly to the identification of oxidative stress as a hallmark of T-cell exhaustion. We therefore evaluated whether adding N-acetylcysteine (10 mM) to T-cell media every 48 hours during days 2-8 of chronic stimulation would be sufficient to reverse the effects of chronic stimulation on T-cell growth and effector function. […] FIGS. 12-16. Moreover, this strategy was also effective in reversing the exhaustion of chimeric antigen receptor (CAR) T-cells. For this assay, T-cells retrovirally infected to express a chimeric antigen receptor targeting CD19 were adoptively transferred into mice who had previously received A20 B-cell lymphoma cells. This protocol is known to generate “exhausted” CAR T-cells by Day 14 following CAR T-cell transfer. […] FIG. 16. To determine this, T-cells that had been acutely or chronically stimulated in the presence or absence of 10 mM N-acetylcysteine were assessed for Tcf7 expression via real-time quantitative PCR. […]

exhausted CAR-T cells [4] = assay: Proliferative capacity of exhausted CD19-specific CAR-T cells isolated from lymphoma-bearing mice; details: exhausted CD19 CAR-T cells isolated 14 days after transfer into A20 lymphoma mice; 10 mM in culture media
Description: (§2) FIG. 15A-C N-acetylcysteine reverses CAR-T cell exhaustion. Exhausted CAR-T cells were generated by transferring CD19-specific CAR-T cells into mice bearing CD19-expressing A20 lymphoma cells. After 14 days, CAR-T cells were isolated from mouse spleens and interrogated for proliferative capacity, oxidative stress, and cytokine production. […] The in vitro system that developed and described herein allowed for metabolic evaluations that led directly to the identification of oxidative stress as a hallmark of T-cell exhaustion. We therefore evaluated whether adding N-acetylcysteine (10 mM) to T-cell media every 48 hours during days 2-8 of chronic stimulation would be sufficient to reverse the effects of chronic stimulation on T-cell growth and effector function. […] FIGS. 12-16. Moreover, this strategy was also effective in reversing the exhaustion of chimeric antigen receptor (CAR) T-cells. For this assay, T-cells retrovirally infected to express a chimeric antigen receptor targeting CD19 were adoptively transferred into mice who had previously received A20 B-cell lymphoma cells. This protocol is known to generate “exhausted” CAR T-cells by Day 14 following CAR T-cell transfer. […] FIG. 16. To determine this, T-cells that had been acutely or chronically stimulated in the presence or absence of 10 mM N-acetylcysteine were assessed for Tcf7 expression via real-time quantitative PCR. […]

exhausted CAR-T cells [5] = assay: Cytokine production of exhausted CAR-T cells; details: exhausted CD19 CAR-T cells isolated 14 days after transfer; 10 mM
Description: as §2

exhausted CAR-T cells [6] = assay: Oxidative stress (reactive oxygen species) in exhausted CAR-T cells; details: exhausted CD19 CAR-T cells isolated 14 days after transfer, re-stimulated with anti-CD3 and anti-CD28; 10 mM
Description: as §2

[7] = test system: chronically stimulated T-cells; assay: Cytokine production of chronically stimulated T-cells after re-stimulation (flow cytometry); details: CD3+ T cells, 8 days of culture, N-acetylcysteine 10 mM
Procedure: as §1
The expression of the inhibitory receptors PD-1, LAG-3, and PD-L1 and the effector cytokines IFNγ, TNFα and IL2 was analyzed by flow cytometry. Briefly, cells that were stimulated acutely or chronically for 8 days as described herein were re-stimulated after overnight rest using 50 ng/mL phorbol myristate acetate (PMA) and 500 ng/mL ionomycin. […]
The in vitro system that developed and described herein allowed for metabolic evaluations that led directly to the identification of oxidative stress as a hallmark of T-cell exhaustion. We therefore evaluated whether adding N-acetylcysteine (10 mM) to T-cell media every 48 hours during days 2-8 of chronic stimulation would be sufficient to reverse the effects of chronic stimulation on T-cell growth and effector function. […] To determine this, T-cells that had been acutely or chronically stimulated in the presence or absence of 10 mM N-acetylcysteine were assessed for Tcf7 expression via real-time quantitative PCR. […]

SMILES: CC(=O)N[C@@H](CS)C(=O)O [N-acetylcysteine]
- anti-PD-1 responsiveness of chronically stimulated T-cells ([1]; 10 mM N-acetylcysteine every 48 hours during days 2-8 of chronic stimulation): fully restored
- tumor / target cell killing by chronically stimulated T-cells ([1]; 8 days of culture, co-cultured with tumor cells expressing specific antigen, N-acetylcysteine 10 mM): effectively reversed; also recorded: fully restored
- T-cell proliferation under chronic stimulation [2]: fully reverses the impairment in proliferation; also recorded: fully reverse
- intracellular ophthalmate levels [3]: reversed
- Tcf7 expression (memory marker) (Tcf7): restored Tcf7 expression; also recorded: largely restored
- CAR-T cell proliferation (exhausted CAR-T cells [4]): enhanced CAR-T cell proliferation; also recorded: allowed CAR T-cells to proliferate
- CAR-T cell cytokine production (exhausted CAR-T cells [5]): enhanced; also recorded: allowed CAR T-cells to proliferate and produce cytokine
- oxidative stress (reactive oxygen species) in CAR-T cells (exhausted CAR-T cells [6]): reducing oxidative stress; also recorded: could be reversed
- cytokine production of chronically stimulated T-cells [7]: effectively reversed; also recorded: fully reverse

— patent US20210077529A1, “T-CELL EXHAUSTION, METHODS & COMPOSITIONS RELATING THERETO” (MEMORIAL SLOAN KETTERING CANCER CENTER, priority 2018, published 2021)
